Measured values taken from patent US10357484B2, “Heterocyclic compound” (Takeda Pharmaceutical Company Limited, priority 2015, dated 2019).

What was measured:
Format in all cases: biochemical
HDAC6 enzyme = target: T1, HDAC6 enzyme (Homo sapiens, UniProt Q9UBN7); test: HDAC6 enzyme inhibitory assay (HDAC-Glo I/II Assay kit); details: 1 μM test compound; wells without enzyme = 100% inhibition; read-out: HDAC6 inhibitory rate (%) (1 μM)
T1 construct: transducing full length HDAC1 and HDAC6 genes into Sf-9 insect cells; GST; purchased SignalChem; host or cells: Sf-9 insect cells
T1 sequence (Q9UBN7 1-1215): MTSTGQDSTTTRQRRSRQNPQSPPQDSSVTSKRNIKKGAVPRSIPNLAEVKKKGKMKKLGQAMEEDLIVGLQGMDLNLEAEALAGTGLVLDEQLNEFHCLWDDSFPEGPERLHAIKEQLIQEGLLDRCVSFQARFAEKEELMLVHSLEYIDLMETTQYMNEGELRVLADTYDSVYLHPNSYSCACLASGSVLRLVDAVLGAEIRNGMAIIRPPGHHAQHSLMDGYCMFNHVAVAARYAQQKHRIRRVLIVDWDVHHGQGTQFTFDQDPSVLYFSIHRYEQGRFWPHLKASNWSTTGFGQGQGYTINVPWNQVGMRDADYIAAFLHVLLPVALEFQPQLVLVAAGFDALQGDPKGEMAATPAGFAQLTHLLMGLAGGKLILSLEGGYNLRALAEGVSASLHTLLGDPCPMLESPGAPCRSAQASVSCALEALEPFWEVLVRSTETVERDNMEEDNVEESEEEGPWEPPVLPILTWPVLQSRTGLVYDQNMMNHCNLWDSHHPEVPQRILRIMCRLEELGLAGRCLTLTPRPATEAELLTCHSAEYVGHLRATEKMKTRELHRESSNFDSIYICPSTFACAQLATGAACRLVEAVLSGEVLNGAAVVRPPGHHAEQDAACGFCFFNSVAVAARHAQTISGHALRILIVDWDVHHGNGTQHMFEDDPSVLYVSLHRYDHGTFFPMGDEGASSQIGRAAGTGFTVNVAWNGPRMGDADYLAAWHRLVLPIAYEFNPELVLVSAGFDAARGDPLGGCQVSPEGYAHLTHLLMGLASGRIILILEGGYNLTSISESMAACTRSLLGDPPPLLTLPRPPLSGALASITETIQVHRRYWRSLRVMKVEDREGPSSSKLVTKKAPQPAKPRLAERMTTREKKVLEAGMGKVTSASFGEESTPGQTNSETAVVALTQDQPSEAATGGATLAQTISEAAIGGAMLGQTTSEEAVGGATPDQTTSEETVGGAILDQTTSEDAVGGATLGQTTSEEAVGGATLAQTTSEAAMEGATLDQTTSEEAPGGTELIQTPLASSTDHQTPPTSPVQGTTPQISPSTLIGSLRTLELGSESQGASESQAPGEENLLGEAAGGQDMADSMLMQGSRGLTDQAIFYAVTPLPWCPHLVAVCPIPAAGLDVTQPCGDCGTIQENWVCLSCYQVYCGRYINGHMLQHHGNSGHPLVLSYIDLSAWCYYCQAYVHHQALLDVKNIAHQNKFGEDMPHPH
Description: (§1) HDAC1/6 Enzyme Inhibitory Assay
(§2) HDAC1 enzyme and HDAC6 enzyme each prepared by transducing full length HDAC1 and HDAC6 genes into Sf-9 insect cells and purifying by GST affinity column were purchased from SignalChem. Using these enzymes, HDAC1 and/or HDAC6 enzyme inhibitory activities of the compound of the present invention were evaluated. Enzymes were used after preserved at −70° C. HDAC1 or HDAC6 enzyme inhibitory activity of the compound of the present invention was measured using HDAC-Glo™ I/II Assay kit (Promega) according to the following experimental method. The test compound diluted with assay buffer (24 mM Tris-HCl (pH 7.5), 1 mM MgCl2, 0.35 mM KCl, 135 mM NaCl, 0.6 mM Glutathione, 0.01% Tween-20) was added to a 384-well plate by each 2 μL. Then, HDAC1 or HDAC6 enzyme solution diluted with assay buffer was added thereto by each 4 μL, and the plate was incubated at room temperature for 60 min. After incubated, HDAC substrate-Developer solution prepared according to Promega protocol attached to the assay kit was added to the 384-well plate by each 2 μL, and the enzyme reaction was started. After reacting at room temperature for 20 min, luminescence level was measured using plate reader Envision (PerkinElmer). The inhibitory activity of each compound was calculated as a relative activity value when luminescence level in wells without enzyme is considered as 100% inhibition.

HDAC1 enzyme = target: T2, HDAC1 enzyme (Homo sapiens, UniProt Q13547); test: HDAC1 enzyme inhibitory assay (HDAC-Glo I/II Assay kit); details: 1 μM test compound; wells without enzyme = 100% inhibition; read-out: HDAC1 inhibitory rate (%) (1 μM)
T2 construct: transducing full length HDAC1 and HDAC6 genes into Sf-9 insect cells; GST; purchased SignalChem; host or cells: Sf-9 insect cells
T2 sequence (Q13547 whole entry): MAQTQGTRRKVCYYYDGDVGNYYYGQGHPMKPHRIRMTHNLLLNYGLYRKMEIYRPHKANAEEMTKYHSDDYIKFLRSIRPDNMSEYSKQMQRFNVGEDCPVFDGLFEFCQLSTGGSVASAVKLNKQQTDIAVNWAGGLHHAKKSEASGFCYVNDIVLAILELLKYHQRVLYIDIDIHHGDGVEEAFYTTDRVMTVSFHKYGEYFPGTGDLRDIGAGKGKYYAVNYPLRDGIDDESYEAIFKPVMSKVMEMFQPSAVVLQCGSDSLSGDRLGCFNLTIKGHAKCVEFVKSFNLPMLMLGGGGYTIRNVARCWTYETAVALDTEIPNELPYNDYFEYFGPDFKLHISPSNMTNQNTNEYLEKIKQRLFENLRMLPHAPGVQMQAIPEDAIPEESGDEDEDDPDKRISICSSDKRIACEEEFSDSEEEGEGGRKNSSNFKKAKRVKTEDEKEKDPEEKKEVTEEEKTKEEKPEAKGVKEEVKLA
Description: as §1, §2

HDAC9 enzyme = target: T3, HDAC9 enzyme (Homo sapiens, UniProt Q9UKV0); test: HDAC9 enzyme inhibitory assay (HDAC-Glo class IIa); details: 1 μM test compound; wells without enzyme = 100% inhibition; read-out: HDAC9 inhibitory rate (%) (1 μM)
T3 construct: transducing full length HDAC9 gene into Sf-9 insect cells; made in house; host or cells: Sf-9 insect cells
T3 sequence (Q9UKV0 whole entry, species assumed): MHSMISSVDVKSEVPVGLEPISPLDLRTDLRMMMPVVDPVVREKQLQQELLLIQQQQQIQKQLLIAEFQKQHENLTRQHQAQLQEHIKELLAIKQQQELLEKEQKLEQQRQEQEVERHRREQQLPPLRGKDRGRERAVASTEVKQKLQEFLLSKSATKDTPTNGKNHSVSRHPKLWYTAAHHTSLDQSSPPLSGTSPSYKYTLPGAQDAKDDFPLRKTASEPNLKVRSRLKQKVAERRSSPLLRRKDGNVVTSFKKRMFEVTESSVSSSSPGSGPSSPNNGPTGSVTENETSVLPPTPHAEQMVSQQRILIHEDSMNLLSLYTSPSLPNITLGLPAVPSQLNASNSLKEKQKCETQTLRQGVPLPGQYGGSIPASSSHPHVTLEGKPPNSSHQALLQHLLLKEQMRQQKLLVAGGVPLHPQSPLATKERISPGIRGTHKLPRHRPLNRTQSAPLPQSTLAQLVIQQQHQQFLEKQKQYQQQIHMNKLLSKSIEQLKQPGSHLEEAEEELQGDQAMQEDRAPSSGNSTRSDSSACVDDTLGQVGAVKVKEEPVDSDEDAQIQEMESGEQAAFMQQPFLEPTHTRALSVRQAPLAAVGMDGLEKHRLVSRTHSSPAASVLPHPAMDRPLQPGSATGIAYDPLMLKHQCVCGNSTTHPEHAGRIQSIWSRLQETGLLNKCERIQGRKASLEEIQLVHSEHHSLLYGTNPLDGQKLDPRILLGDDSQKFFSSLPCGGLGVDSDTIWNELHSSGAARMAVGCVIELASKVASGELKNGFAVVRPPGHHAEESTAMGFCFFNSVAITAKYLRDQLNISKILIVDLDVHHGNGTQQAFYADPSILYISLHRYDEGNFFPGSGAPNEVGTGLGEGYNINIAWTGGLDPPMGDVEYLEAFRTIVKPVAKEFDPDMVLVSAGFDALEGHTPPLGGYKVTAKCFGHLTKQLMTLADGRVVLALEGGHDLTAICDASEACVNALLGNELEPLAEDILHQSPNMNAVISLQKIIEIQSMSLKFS
Description: HDAC9 Enzyme Inhibitory Assay
Enzyme was prepared by transducing full length HDAC9 gene into Sf-9 insect cells and purifying by Ni-NTA affinity column, and HDAC9 enzyme inhibitory activity was evaluated. Enzymes were used after preserved at −70° C. HDAC9 enzyme inhibitory activity of the test compound was measured using HDAC-Glo class IIa (Promega) according to the following experimental method. The test compound diluted with assay buffer (24 mM Tris-HCl (pH 7.5), 1 mM MgCl2, 0.35 mM KCl, 135 mM NaCl, 0.6 mM Glutathione, 0.01% Tween-20) was added to a 384-well plate by each 2 μL. Then, HDAC9 enzyme solution diluted with assay buffer was added thereto by each 2 μL, and the plate was incubated at room temperature for 60 min. After incubated, HDAC substrate-Developer solution prepared according to Promega protocol was added to the 384-well plate by each 4 μL, and the enzyme reaction was started. After reacting at room temperature for 20 min, luminescence level was measured using plate reader Envision (PerkinElmer). The inhibitory activity of each compound was calculated as a relative activity value when luminescence level in wells without enzyme is considered as 100% inhibition.

Compound	inhibition at 1 µM (HDAC6 enzyme) [%]	inhibition at 1 µM (HDAC1 enzyme) [%]	inhibition at 1 µM (HDAC9 enzyme) [%]
C[C@@H](c1cccc2ccccc12)N1Cc2ccc(-c3noc(C(F)(F)F)n3)cc2C1=O [Example 22, 2-((1S)-1-(1-naphthyl)ethyl)-6-(5-(trifluoromethyl)-1,2,4-oxadiazol-3-yl)isoindolin-1-one]	92	3	82
O=C1c2cc(-c3noc(C(F)(F)F)n3)ccc2CN1Cc1cccc(Oc2ccccc2)c1 [Example 10, 2-(3-phenoxybenzyl)-6-(5-(trifluoromethyl)-1,2,4-oxadiazol-3-yl)isoindolin-1-one]	28	15	52
C[C@@H](c1ccc(F)cc1F)N1Cc2ccc(-c3noc(C(F)(F)F)n3)cc2C1=O [Example 17, 2-((1S)-1-(2,4-difluorophenyl)ethyl)-6-(5-(trifluoromethyl)-1,2,4-oxadiazol-3-yl)isoindolin-1-one]	95	12	74
O=C1c2cc(-c3noc(C(F)(F)F)n3)ccc2CN1Cc1ccccc1Oc1ccccc1 [Example 11, 2-(2-phenoxybenzyl)-6-(5-(trifluoromethyl)-1,2,4-oxadiazol-3-yl)isoindolin-1-one]	68	4	5
CN(c1ncccc1CN1Cc2ccc(-c3noc(C(F)(F)F)n3)cc2C1=O)S(C)(=O)=O [Example 35, N-methyl-N-(3-((1-oxo-6-(5-(trifluoromethyl)-1,2,4-oxadiazol-3-yl)-1,3-dihydro-2H-isoindol-2-yl)methyl)pyridin-2-yl)methanesulfonamide]	97	6	61
COc1cc(F)ccc1[C@H](C)N1Cc2ccc(-c3noc(C(F)(F)F)n3)cc2C1=O [Example 20, 2-((S)-1-(4-fluoro-2-methoxyphenyl)ethyl)-6-(5-(trifluoromethyl)-1,2,4-oxadiazol-yl)isoindolin-1-one]	95	16	66
O=C1c2cc(-c3noc(C(F)(F)F)n3)cnc2CN1Cc1cccnc1 [Example 4, 6-(pyridin-3-ylmethyl)-3-(5-(trifluoromethyl)-1,2,4-oxadiazol-3-yl)-6,7-dihydro-5H-pyrrolo[3,4-b]pyridin-5-one]	93	43	93
COc1ccc([C@H](C)N2Cc3ccc(-c4noc(C(F)(F)F)n4)cc3C2=O)cc1 [Example 18, 2-((1S)-1-(4-methoxyphenyl)ethyl)-6-(5-(trifluoromethyl)-1,2,4-oxadiazol-3-yl)isoindolin-1-one]	91	27	89
C[C@@H](c1ccccc1)N1Cc2ccc(-c3noc(C(F)(F)F)n3)cc2C1=O [Example 8, 2-((1S)-1-phenylethyl)-6-(5-(trifluoromethyl)-1,2,4-oxadiazol-3-yl)isoindolin-1-one]	99	19	87
C[C@H](c1ccccc1)N1Cc2ccc(-c3noc(C(F)(F)F)n3)cc2C1=O [Example 7, 2-((1R)-1-phenylethyl)-6-(5-(trifluoromethyl)-1,2,4-oxadiazol-3-yl)isoindolin-1-one]	95	17	78
O=C1c2cc(-c3noc(C(F)(F)F)n3)ccc2CN1Cc1ccccc1 [Example 6, 2-benzyl-6-(5-(trifluoromethyl)-1,2,4-oxadiazol-3-yl)isoindolin-1-one]	102	24	82
CC(c1cccnc1)N1Cc2ncc(-c3noc(C(F)(F)F)n3)cc2C1=O (stereo not drawn) [Example 5, 6-(1-(pyridin-3-yl)ethyl)-3-(5-(trifluoromethyl)-1,2,4-oxadiazol-3-yl)-6,7-dihydro-5H-pyrrolo[3,4-b]pyridin-5-one]	97	43	93
N#Cc1ccc(CN2Cc3ccc(-c4noc(C(F)(F)F)n4)cc3C2=O)cc1 [Example 29, 4-((1-oxo-6-(5-(trifluoromethyl)-1,2,4-oxadiazol-3-yl)-1,3-dihydro-2H-isoindol-2-yl)methyl)benzonitrile]	94	23	74
CC(C)(c1ccccc1)N1Cc2ncc(-c3noc(C(F)(F)F)n3)cc2C1=O [Example 3, 6-(2-phenylpropan-2-yl)-3-(5-(trifluoromethyl)-1,2,4-oxadiazol-3-yl)-6,7-dihydro-5H-pyrrolo[3,4-b]pyridin-5-one]	98	36	89
C[C@H](c1cccc2ccccc12)N1Cc2ccc(-c3noc(C(F)(F)F)n3)cc2C1=O [Example 23, 2-((1R)-1-(1-naphthyl)ethyl)-6-(5-(trifluoromethyl)-1,2,4-oxadiazol-3-yl)isoindolin-1-one]	99	4	28
C[C@@H](c1ccccc1F)N1Cc2ccc(-c3noc(C(F)(F)F)n3)cc2C1=O [Example 15, 2-((1S)-1-(2-fluorophenyl)ethyl)-6-(5-(trifluoromethy)-1,2,4-oxadiazol-3-yl)isoindolin-1-one]	95	15	79
C[C@@H](c1ccc(F)cc1OC(F)F)N1Cc2ccc(-c3noc(C(F)(F)F)n3)cc2C1=O [Example 21, 2-((1S)-1-(2-(difluoromethoxy)-4-fluorophenyl)ethyl)-6-(5-(trifluoromethyl)-1,2,4-oxadiazol-3 yl)isoindolin-1-one]	96	18	73
COc1ncccc1CN1Cc2ccc(-c3noc(C(F)(F)F)n3)cc2C1=O [Example 33, 2-((2-methoxypyridin-3-yl)methyl)-6-(5-(trifluoromethyl)-1,2,4-oxadiazol-3-yl)isoindolin-1-one]	98	19	77
